Literature values, collected in US20190374552A1, “MULTIFUNCTIONAL FORMULATIONS AND METHODS TO CONTROL DERMATITIS AND PRURITUS” (priority 2016, published 2019).
pIC50: −log10 of the molar value. Entries after “also recorded” stand apart in the source; their conditions may differ.

How the values were obtained:
TRPA1 [1] = target: T1, TRPA1 (Homo sapiens, UniProt O75762)
Target sequence in this assay (O75762 whole entry): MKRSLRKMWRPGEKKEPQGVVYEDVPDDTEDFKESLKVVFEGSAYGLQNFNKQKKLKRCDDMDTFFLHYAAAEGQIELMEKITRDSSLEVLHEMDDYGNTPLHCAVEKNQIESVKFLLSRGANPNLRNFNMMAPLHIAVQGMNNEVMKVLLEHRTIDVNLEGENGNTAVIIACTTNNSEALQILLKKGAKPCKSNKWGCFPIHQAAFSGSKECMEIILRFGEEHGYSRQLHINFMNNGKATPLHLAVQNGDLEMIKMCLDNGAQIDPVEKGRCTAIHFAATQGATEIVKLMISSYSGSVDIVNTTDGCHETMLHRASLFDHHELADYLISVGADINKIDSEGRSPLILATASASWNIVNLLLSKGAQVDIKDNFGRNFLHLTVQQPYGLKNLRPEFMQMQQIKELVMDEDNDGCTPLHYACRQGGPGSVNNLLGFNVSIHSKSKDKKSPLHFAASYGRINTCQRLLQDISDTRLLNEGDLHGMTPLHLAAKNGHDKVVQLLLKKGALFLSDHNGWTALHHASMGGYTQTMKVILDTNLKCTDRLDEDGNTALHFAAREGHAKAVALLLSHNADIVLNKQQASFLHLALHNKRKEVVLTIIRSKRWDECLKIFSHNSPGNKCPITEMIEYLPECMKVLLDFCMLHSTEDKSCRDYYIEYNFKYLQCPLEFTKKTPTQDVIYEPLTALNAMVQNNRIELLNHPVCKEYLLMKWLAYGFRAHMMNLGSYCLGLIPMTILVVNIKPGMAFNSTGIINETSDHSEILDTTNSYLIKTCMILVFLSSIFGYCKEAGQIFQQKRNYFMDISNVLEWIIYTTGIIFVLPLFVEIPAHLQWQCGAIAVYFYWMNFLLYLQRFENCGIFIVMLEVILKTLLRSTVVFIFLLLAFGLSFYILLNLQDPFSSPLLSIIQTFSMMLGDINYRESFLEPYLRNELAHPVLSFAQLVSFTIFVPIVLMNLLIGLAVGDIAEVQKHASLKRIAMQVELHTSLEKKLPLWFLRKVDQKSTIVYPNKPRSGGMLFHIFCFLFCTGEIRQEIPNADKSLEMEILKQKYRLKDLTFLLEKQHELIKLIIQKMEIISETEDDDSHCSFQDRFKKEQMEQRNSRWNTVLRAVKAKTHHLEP

human TRPM8 (hTRPM8) = human TRPM8 (hTRPM8) (Homo sapiens, UniProt Q7Z2W7)
TRPV1 [2] = target: T2, TRPV1 (Homo sapiens, UniProt Q8NER1)
Target sequence in this assay (Q8NER1 whole entry): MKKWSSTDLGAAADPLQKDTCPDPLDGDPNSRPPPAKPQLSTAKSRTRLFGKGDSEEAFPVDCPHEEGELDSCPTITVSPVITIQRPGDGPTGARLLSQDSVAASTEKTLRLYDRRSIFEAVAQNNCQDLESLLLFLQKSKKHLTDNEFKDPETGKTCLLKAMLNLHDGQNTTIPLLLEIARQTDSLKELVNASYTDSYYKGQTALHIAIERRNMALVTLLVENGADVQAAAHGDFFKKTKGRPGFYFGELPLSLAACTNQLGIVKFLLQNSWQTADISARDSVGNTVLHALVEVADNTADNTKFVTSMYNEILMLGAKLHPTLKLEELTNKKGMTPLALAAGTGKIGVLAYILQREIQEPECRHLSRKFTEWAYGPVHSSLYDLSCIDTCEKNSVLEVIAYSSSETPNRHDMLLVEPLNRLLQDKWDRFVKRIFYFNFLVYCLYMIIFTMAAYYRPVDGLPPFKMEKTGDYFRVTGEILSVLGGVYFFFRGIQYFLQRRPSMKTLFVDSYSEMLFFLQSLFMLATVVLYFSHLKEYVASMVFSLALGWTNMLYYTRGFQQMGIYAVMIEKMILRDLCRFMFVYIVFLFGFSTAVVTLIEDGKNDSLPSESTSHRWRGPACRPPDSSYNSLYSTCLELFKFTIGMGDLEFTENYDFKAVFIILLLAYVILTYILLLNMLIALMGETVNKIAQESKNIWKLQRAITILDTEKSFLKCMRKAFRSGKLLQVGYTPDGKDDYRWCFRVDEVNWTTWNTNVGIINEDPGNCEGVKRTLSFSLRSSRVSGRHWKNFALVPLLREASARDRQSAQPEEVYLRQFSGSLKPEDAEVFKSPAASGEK

hTRPV2 = target: T3, hTRPV2 (Homo sapiens, UniProt Q9Y5S1)
T3 sequence (Q9Y5S1 1-764): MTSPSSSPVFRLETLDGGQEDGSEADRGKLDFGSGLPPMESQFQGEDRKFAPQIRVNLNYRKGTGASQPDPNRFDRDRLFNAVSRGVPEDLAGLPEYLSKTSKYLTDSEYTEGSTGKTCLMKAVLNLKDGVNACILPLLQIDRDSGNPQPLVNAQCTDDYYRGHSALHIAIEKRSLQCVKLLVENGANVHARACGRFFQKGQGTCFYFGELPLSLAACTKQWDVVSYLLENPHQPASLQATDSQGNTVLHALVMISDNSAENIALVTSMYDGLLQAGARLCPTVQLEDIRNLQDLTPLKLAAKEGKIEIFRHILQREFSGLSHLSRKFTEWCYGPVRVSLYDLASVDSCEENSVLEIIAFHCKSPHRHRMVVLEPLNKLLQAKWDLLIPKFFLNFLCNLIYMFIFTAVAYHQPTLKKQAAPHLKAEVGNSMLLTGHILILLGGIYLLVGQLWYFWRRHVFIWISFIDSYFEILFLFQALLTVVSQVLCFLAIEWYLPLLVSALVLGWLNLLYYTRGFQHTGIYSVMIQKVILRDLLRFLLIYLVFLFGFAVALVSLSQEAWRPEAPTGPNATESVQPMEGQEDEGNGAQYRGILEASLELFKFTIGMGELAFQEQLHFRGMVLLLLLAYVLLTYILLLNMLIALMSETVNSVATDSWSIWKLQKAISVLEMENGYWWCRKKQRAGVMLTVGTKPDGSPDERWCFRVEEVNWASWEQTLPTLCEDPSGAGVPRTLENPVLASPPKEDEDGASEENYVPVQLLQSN

TRPA1 [3] = target: T1, TRPA1; settings: for inhibition of hTRPA1 activation by menthol and allyl isothiocyanate: compound at 1 mM, menthol 1 mM, allyl isothiocyanate 10 uM
Target sequence in this assay (O75762 whole entry): as the sequence (O75762 whole entry) above

TRPA1 [4] = target: T1, TRPA1; remark: listed apart in the source
Target sequence in this assay (O75762 whole entry, species assumed): as the sequence (O75762 whole entry) above

TRPV1 [5] = target: T2, TRPV1; remark: listed apart in the source
Target sequence in this assay (Q8NER1 whole entry, species assumed): as the sequence (Q8NER1 whole entry) above

histaminergic itch = settings: topical application, human trials
scratching behavior ACD = settings: mice exposed to haptens oxazolone and urushiol
TRPV1 [6] = target: TRPV1 (Rattus norvegicus, UniProt O35433); settings: compared with docosahexaenoic acid
leukocyte migration = settings: induced by injection of carrageenan
TRPV1 [7] = test system: TRPV1
pain and itch responses = settings: mice
TRPV1 [8] = target: T2, TRPV1; remark: listed apart in the source
Target sequence in this assay (Q8NER1 whole entry, species assumed): as the sequence (Q8NER1 whole entry) above

TRPA1 [9] = target: T1, TRPA1; remark: listed apart in the source
Target sequence in this assay (O75762 whole entry, species assumed): as the sequence (O75762 whole entry) above

TRPM8 = TRPM8 (Homo sapiens, UniProt Q7Z2W7)
Chain of TRPM8 (Q7Z2W7 whole entry, species assumed): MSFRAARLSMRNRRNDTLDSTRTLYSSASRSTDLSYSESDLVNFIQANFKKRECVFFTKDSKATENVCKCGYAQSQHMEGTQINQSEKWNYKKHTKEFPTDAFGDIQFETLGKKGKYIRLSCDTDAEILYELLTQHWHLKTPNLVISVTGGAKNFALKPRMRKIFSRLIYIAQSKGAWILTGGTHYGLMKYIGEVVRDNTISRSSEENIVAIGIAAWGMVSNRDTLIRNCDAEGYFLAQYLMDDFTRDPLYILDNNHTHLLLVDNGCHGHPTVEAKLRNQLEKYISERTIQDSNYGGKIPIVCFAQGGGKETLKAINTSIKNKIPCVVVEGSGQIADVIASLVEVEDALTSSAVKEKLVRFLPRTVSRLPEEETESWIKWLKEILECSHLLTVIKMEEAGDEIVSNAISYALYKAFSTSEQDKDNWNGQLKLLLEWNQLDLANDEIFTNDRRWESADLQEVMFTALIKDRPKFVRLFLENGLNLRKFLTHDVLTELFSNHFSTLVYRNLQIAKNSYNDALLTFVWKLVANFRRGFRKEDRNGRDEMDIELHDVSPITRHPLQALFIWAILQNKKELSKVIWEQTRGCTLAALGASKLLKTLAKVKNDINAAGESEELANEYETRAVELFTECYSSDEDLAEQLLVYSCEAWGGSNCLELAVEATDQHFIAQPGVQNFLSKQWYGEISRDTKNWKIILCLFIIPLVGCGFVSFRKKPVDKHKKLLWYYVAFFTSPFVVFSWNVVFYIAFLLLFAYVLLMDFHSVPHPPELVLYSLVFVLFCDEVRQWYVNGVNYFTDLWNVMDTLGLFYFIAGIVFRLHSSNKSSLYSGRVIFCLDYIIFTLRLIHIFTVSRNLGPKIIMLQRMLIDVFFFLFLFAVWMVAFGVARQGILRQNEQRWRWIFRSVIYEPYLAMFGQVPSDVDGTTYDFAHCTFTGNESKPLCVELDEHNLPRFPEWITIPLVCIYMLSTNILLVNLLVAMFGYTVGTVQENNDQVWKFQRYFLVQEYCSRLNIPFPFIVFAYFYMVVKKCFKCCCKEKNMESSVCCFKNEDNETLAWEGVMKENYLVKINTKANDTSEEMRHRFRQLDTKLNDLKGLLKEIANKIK

Chain of human TRPM8 (hTRPM8) (Q7Z2W7 whole entry): as the sequence (Q7Z2W7 whole entry, species assumed) above
Chain of TRPV1 (Rattus norvegicus, UniProt O35433) (O35433 whole entry): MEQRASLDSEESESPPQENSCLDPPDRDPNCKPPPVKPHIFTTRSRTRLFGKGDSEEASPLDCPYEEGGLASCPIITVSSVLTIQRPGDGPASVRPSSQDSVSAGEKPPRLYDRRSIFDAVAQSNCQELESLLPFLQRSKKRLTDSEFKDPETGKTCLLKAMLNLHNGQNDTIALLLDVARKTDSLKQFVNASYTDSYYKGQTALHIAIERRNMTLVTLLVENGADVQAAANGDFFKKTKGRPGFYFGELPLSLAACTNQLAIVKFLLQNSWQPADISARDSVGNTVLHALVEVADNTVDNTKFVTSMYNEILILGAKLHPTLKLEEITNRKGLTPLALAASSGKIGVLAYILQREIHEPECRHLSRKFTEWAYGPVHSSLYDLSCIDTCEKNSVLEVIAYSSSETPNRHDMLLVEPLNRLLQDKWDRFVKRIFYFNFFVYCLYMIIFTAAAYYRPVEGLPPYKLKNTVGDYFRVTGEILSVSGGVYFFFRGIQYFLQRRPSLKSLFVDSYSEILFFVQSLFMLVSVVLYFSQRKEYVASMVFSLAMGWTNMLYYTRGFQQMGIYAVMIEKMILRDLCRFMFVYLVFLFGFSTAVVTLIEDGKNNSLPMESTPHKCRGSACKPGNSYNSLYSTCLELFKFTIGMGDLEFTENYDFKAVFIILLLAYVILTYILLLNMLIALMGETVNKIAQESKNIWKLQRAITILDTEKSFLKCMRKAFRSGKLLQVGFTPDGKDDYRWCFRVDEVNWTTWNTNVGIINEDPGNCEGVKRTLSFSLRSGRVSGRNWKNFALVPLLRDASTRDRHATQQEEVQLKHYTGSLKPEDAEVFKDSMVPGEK

Compound: CC12CCC(CC1)C(C)(C)O2 [1,8-cineole]
- activation of hTRPA1 (TRPA1 [1]): did not activate
- activation of hTRPM8 (human TRPM8 (hTRPM8)): activates
- activation of hTRPV1 (TRPV1 [2]): did not activate
- activation of hTRPV2 (hTRPV2): did not activate
- release of IL-I β, IL-4, IL-5 and TNF-a (stimulated lymphocytes): decreased

Compound: CC1(C)[C@@H]2CC[C@@]1(C)[C@](C)(O)C2 [2-methylosoborneol]
- pIC50 (TRPA1 [3]; TRPA1 activation by 20 uM AITC, read-out: IC-50 concentration, inactivation of TRPA1 activation): 3.92
- inhibition of hTRPA1 activation by menthol and allyl isothiocyanate (TRPA1 [3]): completely inhibited
- activation of hTRPA1 (TRPA1 [1]): did not activate

Compound: O=C(CCCCC1CCSS1)NCCC(=O)NC(Cc1cnc[nH]1)C(=O)O (stereo not shown) [ADM 09]
- block of TRPA1 agonist AITC (TRPA1 [4]): blocked
- block of TRPV1 agonist capsaicin (TRPV1 [5]): blocked

Compound: CC1CCC(C(C)C)C(O)C1 (stereo not shown) [Example 1-menthol, 1-menthol]
- activation of hTRPA1 (TRPA1 [1]): activated
- activation of hTRPM8 (human TRPM8 (hTRPM8)): activation
- effect on histaminergic / experimentally induced itch (histaminergic itch): significant inhibitory effects; also recorded: significant and pronounced anti-pruritic effect; also recorded: relieved

Compound: CC(C)c1ccc(NC(=O)Cn2cnc3c2c(=O)n(C)c(=O)n3C)cc1 [HC-030031]
- scratching behavior (scratching behavior ACD): inhibition of scratching

Compound: CC/C=C\C/C=C\C/C=C\CCCCCCCC(=O)O [a-linolenic acid]
- TRPV1 inhibition (TRPV1 [6]): markedly more effective inhibitors

Compound: CC1(C)C2CCC1(C)C(O)C2 (stereo not shown) [borneol]
- inhibition of hTRPA1 activation by menthol and allyl isothiocyanate (TRPA1 [3]): completely inhibited
- activation of hTRPA1 (TRPA1 [1]): did not activate
- leukocyte migration (leukocyte migration): reduce
- inhibition of TNF-a and IL-6 (TNF-a and IL-6): inhibits

Compound: CC12CCC(CC1=O)C2(C)C (stereo not shown) [camphor]
- activation of hTRPA1 (TRPA1 [1]): did not activate

Compound: CC12CCC(C1)C(C)(C)C2O (stereo not shown) [fenchyl alcohol]
- inhibition of hTRPA1 activation by menthol and allyl isothiocyanate (TRPA1 [3]): completely inhibited
- activation of hTRPA1 (TRPA1 [1]): did not activate

Compound: O=C1CC2CC[C@H]1C2 [norcamphor]
- activation of hTRPA1 (TRPA1 [1]): did not activate

Compound: CCCCCCCC/C=C\CCCCCCCC(=O)O [oleic acid]
- TRPV1 activity (TRPV1 [7]): inhibited
- pain and itch responses (pain and itch responses): inhibited

Compound: Hyaluronan [HA]
- TRPV1 channel activity (TRPV1 [8]): inhibits
- TRPA1 channel function (TRPA1 [9]): not affected
- TRPM8 channel function (TRPM8): not affected
